Test results published in patent US8173133B2, “Acyl pseudodipeptides which carry a functionalized auxiliary arm” (OM Pharma, priority 1999, dated 2012).
In brackets after ≈: the same amount, converted by molar mass.

Assays:
[1] = tested on: murine macrophage cells; assay: nitric oxide production by murine macrophage cells (Griess); format: cell-based, C57/BL6 mice; conditions: for Max concentration: concentration at maximum amplitude; for EC50 conc: concentration corresponding to 50% of maximum amplitude; for Min concentration: lowest concentration inducing a significant response
Text: Six-week old male C57/BL6 mice are killed by CO2 inhalation. The hip, femur, tibia and posterior appendage bones are removed. The bone marrow is extracted from the bone lumen by injecting Dulbecco's Modified Eagle Medium (DH medium) from the end portions which had been excised. The stem cells are washed and resuspended (approximate cell concentration 4000 cells/ml) in DH medium supplemented with 20% equine serum (SH) and 30% L929 cell supernatant. L929 is a murine fibroblast cell line the supernatant fluid of which is rich in growth factor for macrophage cells (M-CSF). The cell suspension is divided into Petri dishes which are incubated for 8 days in an incubator at 37° C. under 8% CO2 and a moisture saturated atmosphere.
After 8 days, the stem cells have differentiated into mature macrophage cells. The macrophage cells are scraped off by rapid cooling, washed and resuspended in DH medium supplemented with 5% foetal calf serum (FCS), amino acids and antibiotics. The cell density is adjusted to 700 000 cells/ml.
Products previously dissolved in DH medium supplemented with 5% FCS, amino acids and antibiotics are serially diluted directly in microtiter plates. The products are tested in triplicates and each microtiter plate comprises a negative control containing plain medium. The final volume in each well is 100 μl.
100 μl of cell suspension are added to diluted solutions of such products and the cells are incubated for 22 hours in an incubator at 37° C., under 8% CO2 and a moisture saturated atmosphere. At the end of the incubation period with the products, 100 μl of supernatant are withdrawn and the nitrite concentration is determined by running a Griess reaction.
100 μl of Griess reagent (5 mg/ml of sulfanilamide+0.5 mg/ml of N-(1-naphtylethylene diamine hydrochloride)) in 2.5% aq. phosphoric acid, are added to each well. The microtiter plates are read with a spectrophotometer at 562 nm wavelength against a reference sample at 690 nm. The nitrite concentration is proportional to nitric oxide content being formed. The nitrite content is determined based on a standard curve.
The results are given as mean value±standard deviation and plotted as a dose versus response curve.
From this dose versus response curve, 3 curve variables are computed:
Max: maximum curve amplitude and corresponding concentration
EC50: concentration corresponding to 50% of maximum amplitude
Min: lowest concentration inducing a significant proliferation corresponding to the blank±3× standard deviation value
Concentration values corresponding to EC50 and Min are determined from line segments joining different points on the curve.
If the curve has no plateau phase but an ascending configuration for the highest concentration being tested, a “>” sign is shown before “Max” and “EC50” values.

[2] = tested on: (NANP)6P2P30 antigen; assay: (NANP)6P2P30 murine immunization model: anti-(NANP)6P2P30 IgG (ELISA); format: in vivo, BALB/c mice; conditions: two s.c. shots, serum at 5 weeks, FIG. 79
[3] = tested on: HIV-1 IIIB; assay: anti-HIV activity in MT-4 cells (MTT), HIV-1 IIIB; format: cell-based
Description: T MT-4 lymphocyte cell line which had been transformed into a continuous cell line by an HTLV infection, a virus associated with one form of leukemia, was used to test the antiviral activity (anti-HIV) of AZT- and d4T-conjugated compounds according to the invention, respectively. A characteristic feature of such cells is lack of survival following an HIV infection. The test is based on protection provided by the product (like AZT) against this viral destructive effect. Products were tested in serially diluted solutions in a 96-well plate. In the upper portion of the microplate, products were tested by incubation at various concentrations with cells and virus (in triplicate), so as to determine the concentration of product which affords cell protection against the viral destructive effect. IC50 of the product is taken as the concentration where a 50% loss of viable cell count is recorded. Viable cell count was done with MTT, a yellow tetrazolium compound which undergoes enzymatic reduction (at the mitochondrial level in viable cells) into a purple colored formazan compound. Wells containing viable cells are purple in colour, whereas dead cells give a persistent yellow color. Measurement of optical density (O.D.) allows this effect to be quantified.

[4] = cytotoxicity on virus-free MT-4 cells (MTT); format: cell-based; conditions: human, MT-4 cells (virus-free)
Description: Cytotoxicity of a given product is assessed in the same manner in the lower portion of the plate where the test is conducted by incubating serially diluted products over virus-free cells, to thereby determine the toxic effect of products on cells. The result is given as CC50, i.e. the concentration at which 50% of cells are dead due to product toxicity. Selectivity (selectivity index, SI) of a given product is defined as a CC50/IC50 ratio. This parameter is of great importance since the selectivity index of a fairly efficient product is high.

CCCCCCCCCCCC(=O)O[C@H](CCCCCCCCCCC)CC(=O)NC(CCOP(=O)(O)O)C(=O)NCCCC(COC(=O)CCCCC(O)CO)NC(=O)C[C@H](O)CCCCCCCCCCC (stereo partly drawn) [OM-197-FV6, 3-[(R)-dodecanoyloxytetradecanoylamino]-4oxo-5-aza-9-[(R)-3-hydroxytetradecanoylamino]-decan-1,10-diol 1-dihydrogenphate 10-(6,7-dihydroxyheptanoate)]
Max concentration [1]: 25.6 µg/mL
EC50 conc [1]: 1.49 mg/L (≈ 1.38 µM)
Min concentration [1]: 0.20 µg/mL
anti-(NANP)6P2P30 IgG serologic response [2]: greatly superior to the one observed when injecting antigen alone

CCCCCCCCCCCC(=O)O[C@H](CCCCCCCCCCC)CC(=O)N[C@H](CC(=O)O)C(=O)NCCC[C@H](CO)NC(=O)C[C@H](O)CCCCCCCCCCC [OM-197-MC, N—[(R)-3-dodecanoyloxytetradecanoyl]-D-aspartic acid, α-N-{(4R)-5-hydroxy-4[(R)-3-hydroxytetradecanoylamino]-pentyl}amide]
Max concentration [1]: 51 µg/mL
EC50 conc [1]: 1.23 mg/L (≈ 1.42 µM)
Min concentration [1]: 0.15 µg/mL
anti-(NANP)6P2P30 IgG serologic response [2]: greatly superior to the one observed when injecting antigen alone

CCCCCCCCCCCC(=O)O[C@H](CCCCCCCCCCC)CC(=O)N[C@H](CC(=O)O)C(=O)NCCC[C@H](COC(=O)CCCCCNC(=O)CCC(=O)OC[C@H]1O[C@@H](n2cc(C)c(=O)[nH]c2=O)C[C@@H]1N=[N+]=[N-])NC(=O)C[C@H](O)CCCCCCCCCCC [OM-197-MC-AC-Succ-AZT]
IC50 [3]: 0.0519 µM
Max concentration [1]: > 100 µg/mL
EC50 conc [1]: > 74.89 mg/L
Min concentration [1]: 55.98 µg/mL
CC50 [4]: > 94 µM

CCCCCCCCCCCC(=O)O[C@H](CCCCCCCCCCC)CC(=O)N[C@H](CC(=O)O)C(=O)NCCC[C@H](COC(=O)CCCCCNC(=O)CCC(=O)OC[C@@H]1C=C[C@H](n2cc(C)c(=O)[nH]c2=O)O1)NC(=O)C[C@H](O)CCCCCCCCCCC [OM-197-MC-AC-Succ-d4T]
IC50 [3]: 0.963 µM
Max concentration [1]: 12.5 µg/mL
EC50 conc [1]: 1.15 mg/L (≈ 0.893 µM)
Min concentration [1]: 0.56 µg/mL
CC50 [4]: ~97 µM

CCCCCCCCCCC[C@@H](O)CC(=O)N[C@H](CCCNC(=O)[C@@H](CC(=O)O)NC(=O)C(CCCCCC)OC(=O)CCCCCCCCC)COC(=O)CCCCCN (stereo partly drawn) [OM-197-N′(C10-20C8)-MC-AC, N-(2-decanoyloxyoctanoyl)-D-aspartic acid, α-N-{(4R)-5-(6-aminohexanoyloxy)-4-[(R)-3-hydroxytetradecanoylamino]-pentyl}amide]
nitric oxide production [1]: minor production
Max concentration [1]: > 100 µg/mL
EC50 conc [1]: 61.05 mg/L (≈ 70.2 µM)
Min concentration [1]: 54.3 µg/mL

CCCCCCCCCCC[C@@H](O)CC(=O)N[C@H](CCCNC(=O)[C@@H](CC(=O)O)NC(C)=O)COC(=O)CCCCCN [OM-197-N′C2-MC-AC, N-acetyl-D-aspartic acid, α-N-{(4R)-5-(6-aminohexanoyloxy)-4-[(R)-3-hydroxytetradecanoylamino]-pentyl}amide]
Max concentration [1]: 200 µg/mL
